ChEMBL document CHEMBL5291721, “A preclinical secondary pharmacology resource illuminates target-adverse drug reaction associations of marketed drugs” (Nat Commun, 2023)

Experiments:
Androgen receptor = target: T1, Androgen receptor (Homo sapiens, UniProt P10275)
T1 sequence (P10275 whole entry): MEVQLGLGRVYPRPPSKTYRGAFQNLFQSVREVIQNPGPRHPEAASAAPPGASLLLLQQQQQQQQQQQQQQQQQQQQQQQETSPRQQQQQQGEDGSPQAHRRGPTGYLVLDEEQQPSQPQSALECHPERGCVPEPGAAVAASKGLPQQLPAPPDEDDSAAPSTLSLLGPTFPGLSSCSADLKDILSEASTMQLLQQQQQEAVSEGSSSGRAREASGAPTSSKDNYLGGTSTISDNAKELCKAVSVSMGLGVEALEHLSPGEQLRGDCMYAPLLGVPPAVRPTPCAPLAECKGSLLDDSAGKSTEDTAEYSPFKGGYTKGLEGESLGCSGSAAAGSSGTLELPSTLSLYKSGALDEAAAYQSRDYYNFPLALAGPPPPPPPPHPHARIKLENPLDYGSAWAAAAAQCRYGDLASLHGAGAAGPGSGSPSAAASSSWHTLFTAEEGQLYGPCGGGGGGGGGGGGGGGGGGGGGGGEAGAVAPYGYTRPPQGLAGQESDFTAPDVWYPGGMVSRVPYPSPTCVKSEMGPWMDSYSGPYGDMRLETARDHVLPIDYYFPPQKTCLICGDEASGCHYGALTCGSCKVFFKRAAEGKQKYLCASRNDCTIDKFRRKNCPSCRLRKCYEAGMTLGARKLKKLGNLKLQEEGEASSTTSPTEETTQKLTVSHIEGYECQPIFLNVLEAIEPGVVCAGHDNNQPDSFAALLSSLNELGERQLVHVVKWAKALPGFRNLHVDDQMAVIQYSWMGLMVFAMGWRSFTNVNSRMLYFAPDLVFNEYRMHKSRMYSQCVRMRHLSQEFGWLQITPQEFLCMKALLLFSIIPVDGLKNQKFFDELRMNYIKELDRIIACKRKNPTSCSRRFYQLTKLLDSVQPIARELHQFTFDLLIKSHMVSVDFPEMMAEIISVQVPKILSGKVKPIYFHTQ

[1] = target: Gamma-aminobutyric acid receptor subunit alpha-1/alpha-2/beta-2/gamma-2 (Homo sapiens, UniProt P14867+P18507+P47869+P47870); type: functional, cell-based
[2] = target: Beta-3 adrenergic receptor (Homo sapiens, UniProt P13945)
[3] = target: T2, Alpha-2A adrenergic receptor (Homo sapiens, UniProt P08913)
T2 sequence (P08913 whole entry): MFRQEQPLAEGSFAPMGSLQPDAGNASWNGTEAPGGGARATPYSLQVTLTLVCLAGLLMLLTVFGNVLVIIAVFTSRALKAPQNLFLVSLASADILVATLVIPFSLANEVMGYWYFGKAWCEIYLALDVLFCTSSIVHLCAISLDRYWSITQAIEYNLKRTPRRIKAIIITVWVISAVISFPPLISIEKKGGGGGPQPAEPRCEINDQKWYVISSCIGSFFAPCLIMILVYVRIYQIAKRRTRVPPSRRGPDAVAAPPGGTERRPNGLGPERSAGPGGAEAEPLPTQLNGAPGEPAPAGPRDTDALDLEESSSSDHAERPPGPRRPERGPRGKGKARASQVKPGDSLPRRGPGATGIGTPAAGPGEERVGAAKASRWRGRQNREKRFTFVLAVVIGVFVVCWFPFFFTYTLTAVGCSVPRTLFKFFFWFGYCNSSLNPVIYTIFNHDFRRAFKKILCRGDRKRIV

Histamine H2 receptor = Histamine H2 receptor (Homo sapiens, UniProt P25021)
Substance-P receptor = Substance-P receptor (Homo sapiens, UniProt P25103)
[4] = target: T3, Muscarinic acetylcholine receptor M2 (Homo sapiens, UniProt P08172)
T3 sequence (P08172 whole entry): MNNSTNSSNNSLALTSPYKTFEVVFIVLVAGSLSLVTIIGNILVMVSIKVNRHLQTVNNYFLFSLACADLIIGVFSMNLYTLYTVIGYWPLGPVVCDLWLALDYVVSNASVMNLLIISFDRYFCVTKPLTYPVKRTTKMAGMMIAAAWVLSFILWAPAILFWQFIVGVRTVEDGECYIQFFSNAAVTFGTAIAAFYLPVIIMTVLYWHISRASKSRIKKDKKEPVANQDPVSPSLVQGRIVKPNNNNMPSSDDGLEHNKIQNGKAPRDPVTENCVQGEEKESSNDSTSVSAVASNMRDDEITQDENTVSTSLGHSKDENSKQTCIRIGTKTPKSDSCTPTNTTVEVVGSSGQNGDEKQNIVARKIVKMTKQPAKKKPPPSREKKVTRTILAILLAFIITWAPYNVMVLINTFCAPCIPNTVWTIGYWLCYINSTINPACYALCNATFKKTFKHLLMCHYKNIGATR

[5] = target: T4, Peroxisome proliferator-activated receptor gamma (Homo sapiens, UniProt P37231); type: functional
T4 sequence (P37231 whole entry): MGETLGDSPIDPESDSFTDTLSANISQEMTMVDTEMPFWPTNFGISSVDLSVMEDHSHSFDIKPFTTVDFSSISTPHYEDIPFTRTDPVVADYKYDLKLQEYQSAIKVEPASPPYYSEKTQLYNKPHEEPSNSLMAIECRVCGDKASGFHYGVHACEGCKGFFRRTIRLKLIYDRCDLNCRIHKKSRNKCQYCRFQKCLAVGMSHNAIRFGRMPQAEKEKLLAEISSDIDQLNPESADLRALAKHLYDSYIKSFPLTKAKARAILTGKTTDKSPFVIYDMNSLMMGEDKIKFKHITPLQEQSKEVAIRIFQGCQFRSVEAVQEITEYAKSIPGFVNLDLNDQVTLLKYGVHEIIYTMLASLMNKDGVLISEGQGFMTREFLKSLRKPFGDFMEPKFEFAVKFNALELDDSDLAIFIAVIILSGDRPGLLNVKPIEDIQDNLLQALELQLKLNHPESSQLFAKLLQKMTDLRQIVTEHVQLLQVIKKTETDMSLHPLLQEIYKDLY

[6] = target: T4, Peroxisome proliferator-activated receptor gamma; type: functional; remark: listed apart in the source
Further: assay procedure not described here.

Chain of Gamma-aminobutyric acid receptor subunit alpha-1/alpha-2/beta-2/gamma-2 (P14867 whole entry): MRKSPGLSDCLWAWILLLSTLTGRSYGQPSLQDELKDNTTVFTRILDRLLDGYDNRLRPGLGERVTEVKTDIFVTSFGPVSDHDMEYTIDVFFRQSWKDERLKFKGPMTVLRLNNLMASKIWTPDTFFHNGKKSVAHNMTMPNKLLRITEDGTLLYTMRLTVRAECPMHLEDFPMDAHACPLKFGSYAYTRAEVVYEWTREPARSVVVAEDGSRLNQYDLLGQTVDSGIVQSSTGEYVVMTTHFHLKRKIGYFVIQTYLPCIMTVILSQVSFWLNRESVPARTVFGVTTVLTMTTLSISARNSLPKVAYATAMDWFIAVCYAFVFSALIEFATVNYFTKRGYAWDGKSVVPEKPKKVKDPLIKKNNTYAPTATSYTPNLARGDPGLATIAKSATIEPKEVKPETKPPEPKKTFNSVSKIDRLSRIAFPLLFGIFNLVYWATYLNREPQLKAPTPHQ
Chain of Gamma-aminobutyric acid receptor subunit alpha-1/alpha-2/beta-2/gamma-2 (P47870 whole entry): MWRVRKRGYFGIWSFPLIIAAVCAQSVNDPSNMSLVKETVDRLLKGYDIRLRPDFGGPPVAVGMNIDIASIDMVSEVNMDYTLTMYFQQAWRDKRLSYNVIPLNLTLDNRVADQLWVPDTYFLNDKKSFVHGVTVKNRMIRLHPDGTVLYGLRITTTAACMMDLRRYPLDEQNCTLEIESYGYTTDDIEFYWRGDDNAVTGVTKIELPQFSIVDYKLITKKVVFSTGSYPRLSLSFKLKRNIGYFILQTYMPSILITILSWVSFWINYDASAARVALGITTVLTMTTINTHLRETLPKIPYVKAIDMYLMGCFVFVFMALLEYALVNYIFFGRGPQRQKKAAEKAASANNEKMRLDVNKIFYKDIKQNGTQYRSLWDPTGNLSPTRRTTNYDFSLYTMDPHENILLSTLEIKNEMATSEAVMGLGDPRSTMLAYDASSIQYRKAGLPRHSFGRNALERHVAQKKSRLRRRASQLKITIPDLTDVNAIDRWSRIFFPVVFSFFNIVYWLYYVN
Chain of Gamma-aminobutyric acid receptor subunit alpha-1/alpha-2/beta-2/gamma-2 (P18507 whole entry): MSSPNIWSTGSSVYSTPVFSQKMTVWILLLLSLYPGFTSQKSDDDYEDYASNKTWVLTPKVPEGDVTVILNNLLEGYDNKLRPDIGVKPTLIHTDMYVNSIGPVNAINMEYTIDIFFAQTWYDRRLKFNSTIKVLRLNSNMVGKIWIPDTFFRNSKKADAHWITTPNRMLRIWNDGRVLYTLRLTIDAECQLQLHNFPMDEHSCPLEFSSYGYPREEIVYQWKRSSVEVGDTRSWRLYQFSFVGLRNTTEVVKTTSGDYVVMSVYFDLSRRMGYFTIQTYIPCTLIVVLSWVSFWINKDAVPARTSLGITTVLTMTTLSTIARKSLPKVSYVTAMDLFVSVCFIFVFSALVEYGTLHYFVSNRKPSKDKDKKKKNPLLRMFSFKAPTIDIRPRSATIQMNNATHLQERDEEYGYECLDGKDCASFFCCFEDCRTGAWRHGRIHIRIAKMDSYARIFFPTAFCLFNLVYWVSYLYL
Chain of Gamma-aminobutyric acid receptor subunit alpha-1/alpha-2/beta-2/gamma-2 (P47869 whole entry): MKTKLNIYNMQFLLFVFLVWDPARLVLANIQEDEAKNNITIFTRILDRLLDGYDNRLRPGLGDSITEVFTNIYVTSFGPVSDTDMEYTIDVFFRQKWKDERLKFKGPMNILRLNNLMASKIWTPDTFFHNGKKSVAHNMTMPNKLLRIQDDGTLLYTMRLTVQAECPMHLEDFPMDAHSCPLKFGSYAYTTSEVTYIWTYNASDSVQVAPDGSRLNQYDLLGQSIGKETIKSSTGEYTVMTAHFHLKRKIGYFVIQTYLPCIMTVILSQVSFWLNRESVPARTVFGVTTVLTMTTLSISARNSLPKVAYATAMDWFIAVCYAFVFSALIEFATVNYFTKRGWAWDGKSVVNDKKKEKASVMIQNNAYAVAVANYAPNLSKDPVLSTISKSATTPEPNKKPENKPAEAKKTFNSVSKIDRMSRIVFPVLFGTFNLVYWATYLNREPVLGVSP
Chain of Beta-3 adrenergic receptor (P13945 whole entry): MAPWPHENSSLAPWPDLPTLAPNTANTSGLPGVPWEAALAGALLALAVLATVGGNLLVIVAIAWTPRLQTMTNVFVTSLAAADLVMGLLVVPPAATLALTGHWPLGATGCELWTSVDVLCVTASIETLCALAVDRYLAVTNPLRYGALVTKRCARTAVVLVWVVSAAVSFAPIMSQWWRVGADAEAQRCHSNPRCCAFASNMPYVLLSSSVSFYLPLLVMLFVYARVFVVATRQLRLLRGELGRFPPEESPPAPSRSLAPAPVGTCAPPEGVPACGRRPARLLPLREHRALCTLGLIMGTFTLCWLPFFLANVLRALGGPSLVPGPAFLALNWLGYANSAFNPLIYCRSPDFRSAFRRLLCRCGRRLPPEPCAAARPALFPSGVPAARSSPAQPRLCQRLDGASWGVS
Chain of Substance-P receptor (P25103 whole entry): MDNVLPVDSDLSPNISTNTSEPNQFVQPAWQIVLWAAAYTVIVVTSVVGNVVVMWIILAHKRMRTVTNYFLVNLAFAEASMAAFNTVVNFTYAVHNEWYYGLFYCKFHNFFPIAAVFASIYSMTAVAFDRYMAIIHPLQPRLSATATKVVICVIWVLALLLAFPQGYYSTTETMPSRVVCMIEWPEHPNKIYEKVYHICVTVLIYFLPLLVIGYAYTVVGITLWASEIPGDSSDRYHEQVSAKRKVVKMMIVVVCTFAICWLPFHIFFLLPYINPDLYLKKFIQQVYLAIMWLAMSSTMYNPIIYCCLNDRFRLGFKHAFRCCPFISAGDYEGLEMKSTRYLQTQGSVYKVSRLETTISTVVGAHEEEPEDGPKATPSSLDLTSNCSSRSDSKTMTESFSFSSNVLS
Chain of Histamine H2 receptor (P25021 whole entry): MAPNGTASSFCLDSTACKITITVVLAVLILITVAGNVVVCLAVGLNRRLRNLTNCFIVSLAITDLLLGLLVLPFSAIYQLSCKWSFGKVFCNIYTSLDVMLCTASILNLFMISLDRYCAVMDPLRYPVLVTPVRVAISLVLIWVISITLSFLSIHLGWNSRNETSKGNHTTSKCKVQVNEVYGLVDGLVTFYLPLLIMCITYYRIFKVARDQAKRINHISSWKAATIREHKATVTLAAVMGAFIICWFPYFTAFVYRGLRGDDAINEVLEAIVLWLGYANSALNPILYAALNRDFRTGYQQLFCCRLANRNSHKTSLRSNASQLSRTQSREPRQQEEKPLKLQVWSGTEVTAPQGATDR

NCC(CC(=O)O)c1ccccc1 (stereo unspecified) [PHENIBUT]
AC50 (Androgen receptor): > 30 µM

CCC(C)C(CC)C(N)=O (stereo unspecified) [VALNOCTAMIDE]
AC50 [1]: > 30 µM

Cc1cnc(C(=O)NCCc2ccc(S(=O)(=O)NC(=O)NC3CCCCC3)cc2)cn1 [GLIPIZIDE]
AC50 [2]: > 30 µM
AC50 [3]: > 10 µM
AC50 (Histamine H2 receptor): > 10 µM
AC50 (Substance-P receptor): > 10 µM

CCCN[C@H]1CCc2nc(N)sc2C1 [PRAMIPEXOLE]
AC50 (Histamine H2 receptor): 3.86 µM

C[C@H](Cc1cc2c(c(C(N)=O)c1)N(CCCO)CC2)NCCOc1ccccc1OCC(F)(F)F [SILODOSIN]
AC50 (Androgen receptor): > 30 µM

[H]/N=C(/N)N/C(=N/[H])NCCc1ccccc1 [PHENFORMIN]
AC50 [4]: > 10 µM
AC50 [2]: > 30 µM
AC50 [3]: 6.71 µM
AC50 (Histamine H2 receptor): > 10 µM

Cc1cc(C(C)(C)C)cc(C)c1CC1=NCCN1 [XYLOMETAZOLINE]
AC50 [1]: > 30 µM
AC50 [3]: 0.03 µM

O=C(O)c1cn(C2CC2)c2cc(N3CCNCC3)c(F)cc2c1=O [CIPROFLOXACIN]
AC50 (Substance-P receptor): > 10 µM

CCOC(=O)C1=C(C)NC(C)=C(C(=O)OC)C1c1cccc([N+](=O)[O-])c1 (stereo unspecified) [NITRENDIPINE]
AC50 [4]: > 10 µM
AC50 [2]: 15.1 µM
AC50 [3]: > 10 µM
AC50 (Histamine H2 receptor): > 10 µM

C/N=C(\NC)NCc1ccccc1 [BETHANIDINE]
AC50 [5]: > 30 µM
AC50 [1]: > 30 µM
AC50 [6]: > 30 µM

OC1(c2ccc(Cl)cc2)c2ccccc2C2=NCCN21 (stereo unspecified) [MAZINDOL]
AC50 [4]: > 10 µM
AC50 [2]: > 30 µM
AC50 [3]: > 10 µM
AC50 (Histamine H2 receptor): > 10 µM
AC50 (Substance-P receptor): > 10 µM

CN1CCN(C2=Nc3ccccc3Oc3ccc(Cl)cc32)CC1 [LOXAPINE]
AC50 [2]: > 30 µM
AC50 (Substance-P receptor): > 10 µM

CC(CCc1ccc(O)cc1)NCCc1ccc(O)c(O)c1 (stereo unspecified) [DOBUTAMINE]
AC50 [4]: > 10 µM
AC50 [2]: > 30 µM
AC50 [3]: 10.8 µM
AC50 (Histamine H2 receptor): > 10 µM
AC50 (Substance-P receptor): > 10 µM

CCOC(=O)N1CSC[C@H]1C(=O)O [TELMESTEINE]
AC50 (Androgen receptor): > 30 µM

CC(C)N(CCNC(=O)CN1CCCC1=O)C(C)C
AC50 (Androgen receptor): > 30 µM

CC12CC3CC(C)(C1)CC(N)(C3)C2 [MEMANTINE]
AC50 [2]: 20.1 µM

c1ccc2c(c1)CCc1ccccc1N2C1CN2CCC1CC2 (stereo unspecified) [QUINUPRAMINE]
AC50 (Androgen receptor): > 30 µM

O=[N+]([O-])c1ccc(O)c2ncccc12 [NITROXOLINE]
AC50 [1]: > 30 µM

Oc1ccc2c(c1)CC[C@H](c1ccccc1)[C@@H]2c1ccc(OCCN2CCCC2)cc1 [LASOFOXIFENE]
AC50 [5]: > 30 µM
AC50 [1]: > 30 µM
AC50 [6]: 18 µM

CC1=CCC(C(C)(C)O)CC1O (stereo unspecified) [SOBREROL]
AC50 (Androgen receptor): > 30 µM

C[C@]12CC[C@@H]3c4ccc(O)cc4C[C@@H](CCCCCCCCC[S+]([O-])CCCC(F)(F)C(F)(F)F)[C@H]3[C@@H]1CC[C@@H]2O (stereo partly specified) [FULVESTRANT]
AC50 [5]: > 30 µM
AC50 [1]: > 30 µM
AC50 [6]: 14 µM

CC(C)NCC(O)c1ccc(O)c(O)c1 (stereo unspecified) [ISOPROTERENOL]
AC50 [4]: > 10 µM
AC50 (Histamine H2 receptor): > 10 µM
AC50 (Substance-P receptor): > 10 µM

CCCc1nc(C(C)(C)O)c(C(=O)O)n1Cc1ccc(-c2ccccc2-c2nnn[nH]2)cc1 [OLMESARTAN]
AC50 (Androgen receptor): > 30 µM

CNC1=Nc2ccc(Cl)cc2C(c2ccccc2)=[N+]([O-])C1 [CHLORDIAZEPOXIDE]
AC50 [3]: > 10 µM

CCC[C@H](NC(=O)[C@@H]1[C@H]2CCC[C@H]2CN1C(=O)[C@@H](NC(=O)[C@@H](NC(=O)c1cnccn1)C1CCCCC1)C(C)(C)C)C(=O)C(=O)NC1CC1
AC50 [4]: > 10 µM
AC50 [2]: > 30 µM
AC50 [3]: > 10 µM
AC50 (Histamine H2 receptor): > 10 µM

CC(C)COCC(CN(Cc1ccccc1)c1ccccc1)N1CCCC1 (stereo unspecified) [BEPRIDIL]
AC50 [5]: > 30 µM
AC50 [2]: 11.9 µM
AC50 [6]: > 30 µM

CN1CCC(=C2c3ccccc3CCc3cccnc32)CC1 [AZATADINE]
AC50 [4]: 0.064 µM
AC50 [3]: > 10 µM

CN(C)CCOC(c1ccccc1)c1ccc(Br)cc1 (stereo unspecified) [BROMODIPHENHYDRAMINE]
AC50 (Androgen receptor): > 30 µM

COc1cc(N2CCC(N3CCN(C)CC3)CC2)ccc1Nc1ncc(Cl)c(Nc2ccccc2P(C)(C)=O)n1 [BRIGATINIB]
AC50 (Androgen receptor): > 30 µM

CCC(C)C1(CC)C(=O)NC(=O)NC1=O (stereo unspecified) [BUTABARBITAL]
AC50 [5]: > 30 µM
AC50 [6]: > 30 µM

CC(N)C(O)c1ccccc1 (stereo unspecified) [PHENYLPROPANOLAMINE]
AC50 [4]: > 10 µM
AC50 [2]: > 30 µM
AC50 [3]: > 10 µM
AC50 (Histamine H2 receptor): > 10 µM
AC50 (Substance-P receptor): > 10 µM

CCC(=O)O[C@]1(C(=O)SCF)[C@H](C)C[C@H]2[C@@H]3C[C@H](F)C4=CC(=O)C=C[C@]4(C)[C@@]3(F)[C@@H](O)C[C@@]21C [FLUTICASONE PROPIONATE]
AC50 [4]: > 10 µM
AC50 [2]: > 30 µM
AC50 [3]: > 10 µM
AC50 (Histamine H2 receptor): > 10 µM
AC50 (Substance-P receptor): > 10 µM

C[C@H](Cc1ccc(O)c(O)c1)[C@@H](C)Cc1ccc(O)c(O)c1 [MASOPROCOL]
AC50 [5]: > 30 µM
AC50 [6]: 0.4 µM
